Test results reported in US8623407B2, “Gabapentin-containing solid compositions and process for preparing the same” (Pfizer Inc., priority 1998, dated 2014).

Columns and labels:
Assay type in all cases: physicochemical
[1] = Storage stability of baclofen samples: dehydrated condensates content by HPLC; details: based on baclofen
Method: The baclofen powder samples G and H obtained as described above and untreated baclofen crystals were stored under the conditions as defined in the following Table 8 and then a content of dehydrated condensates formed in each of the samples was determined by means of HPLC. In this Example, the content of the dehydrated condensates is expressed in terms of % by weight, based on baclofen.

[2] = Storage stability of pregabalin samples: dehydrated condensate content by HPLC; details: Table 9, based on pregabalin
Method: The samples I, J and K obtained as described above and untreated pregabalin crystals were stored under the conditions as defined in the following Table 9 and then a content of the dehydrated condensate formed in each of the samples was determined by means of HPLC. In the present Example and the following Example 6, a content of the dehydrated condensate is expressed in terms of % by weight, based on pregabalin.
The samples L and M obtained as described above were stored under the conditions as defined in the following Table 10 and then a content of the dehydrated condensate formed in each of the samples was determined by means of HPLC.

[3] = Dehydration reaction (lactam formation) when maintained in a dried state at 105° C.; details: 105° C. over 2-3 hours
Method: To the contrary, in γ-aminobutyric acid derivatives having no or a less bulky substituent at the 3-position thereof, such as γ-aminobutyric acid or 4-amino-3-hydroxy-butanoic acid, the dehydration reaction is not brought about even when maintained in a dried state such as at a temperature of 105° C. over 2-3 hours, and the formation of 4-cyclohexylpyrrolidone (the corresponding lactam form) is not observed. In other words, in the 4-amino-3-substituted-butanoic acid derivative wherein the substituent at the 3-position thereof has a bulky structure, the dehydration reaction could easily be brought about between the amino group and the carboxyl group within the molecule.

## NCC(CC(=O)O)c1ccc(Cl)cc1 (stereo not drawn) [Untreated Baclofen]
[1]; 60° C./1 week (sealed)
  content of dehydrated condensates: 0.36 % by weight
[1]; 60° C./2 weeks (sealed)
  content of dehydrated condensates: 0.57 % by weight
[1]; 60° C./3 weeks (sealed)
  content of dehydrated condensates: 0.70 % by weight
[1]; When Initiated
  content of dehydrated condensates: 0.10 % by weight

## CC(C)CC(CN)CC(=O)O (stereo not drawn) [Untreated Pregabalin, 5-methyl-3-aminomethyl-hexanoic acid]
[2]; 60° C./1 week (sealed)
  content of the dehydrated condensate: 0.001 % by weight
[2]; 60° C./2 weeks (sealed)
  content of the dehydrated condensate: 0.001 % by weight
[2]; When initiated
  content of the dehydrated condensate: <0.001 % by weight

## NCCCC(=O)O [γ-aminobutyric acid]
[3]
  formation of 4-cyclohexylpyrrolidone (the corresponding lactam form): not observed

## NCC(O)CC(=O)O (stereo not drawn) [4-amino-3-hydroxy-butanoic acid]
[3]
  formation of 4-cyclohexylpyrrolidone (the corresponding lactam form): not observed
